From patent publication US9944647B2 (Incyte Corporation, priority 2015, dated 2018) come the findings set out here.

This experiment deals with LSD-1 enzyme (Homo sapiens (Human), UniProt O60341). In words: LANCE LSD1/KDM1A demethylase assay (LSD1 histone demethylase biochemical assay). The conditions noted are these: 1 nM LSD-1 enzyme, 1 hour preincubation at 25° C., Biotin-labeled Histone H3 peptide substrate. As to the method:
Example A: LSD1 Histone Demethylase Biochemical Assay
LANCE LSD1/KDM1A demethylase assay—10 μL of 1 nM LSD-1 enzyme (ENZO BML-SE544-0050) in the assay buffer (50 mM Tris, pH 7.5, 0.01% Tween-20, 25 mM NaCl, 5 mM DTT) were preincubated for 1 hour at 25° C. with 0.8 μL compound/DMSO dotted in black 384 well polystyrene plates. […] Reactions were stopped by addition of 10 μL 1×LANCE Detection Buffer (PerkinElmer CR97-100) supplemented with 1.5 nM Eu-anti-unmodified H3K4 Antibody (PerkinElmer TRF0404), and 225 nM LANCE Ultra Streptavidin (PerkinElmer TRF102) along with 0.9 mM Tranylcypromine-HCl (Millipore 616431). After stopping the reactions plates were incubated for 30 minutes and read on a PHERAstar FS plate reader (BMG Labtech).
As usually defined, the IC50 is the midpoint of a concentration-inhibition curve. `Cc1ccc(-c2c(-c3ccc(C#N)cc3)nc(OC[C@@H]3CCCN(C)C3)n3ccnc23)cc1` [Example 1, 4-(8-(4-methylphenyl)-5-{[(3R)-1-methylpiperidin-3-yl]methoxy}imidazo[1,2-c]pyrimidin-7-yl)benzonitrile] showed a half-maximal inhibitory concentration (IC50) of no more than 50 nM. The same measure for `Cc1ccc(-c2c(-c3ccc(C#N)cc3)nc(OC[C@@H]3CCN(C)C3)n3ccnc23)cc1` [Example 2, 4-(8-(4-methylphenyl)-5-{[(3R)-1-methylpyrrolidin-3-yl]methoxy}imidazo[1,2-c]pyrimidin-7-yl)benzonitrile]: 50 to 500 nM; for `COc1ccc(-c2c(-c3ccc(C#N)cc3)nc(OC[C@@H]3CCCN(C)C3)n3ccnc23)cn1` [Example 3, 4-(8-(6-methoxypyridin-3-yl)-5-{[(3R)-1-methylpiperidin-3-yl]methoxy}imidazo[1,2-c]pyrimidin-7-yl)benzonitrile]: no more than 50 nM. Then `CN1CCC[C@@H](COc2nc(-c3ccc(C#N)cc3)c(-c3ccc(N(C)C)nc3)c3nccn23)C1` [Example 4, 4-(8-[6-(dimethylamino)pyridin-3-yl]-5-{[(3R)-1-methylpiperidin-3-yl]methoxy}imidazo[1,2-c]pyrimidin-7-yl)benzonitrile], with no more than 50 nM; and `CN1CCC[C@@H](COc2nc(-c3ccc(C#N)cc3)c(-c3ccc(N4CCCC4)nc3)c3nccn23)C1` [Example 5, 4-[5-{[(3R)-1-methylpiperidin-3-yl]methoxy}-8-(6-pyrrolidin-1-ylpyridin-3-yl)imidazo[1,2-c]pyrimidin-7-yl]benzonitrile], with no more than 50 nM. For the compound `CN1CCC[C@@H](COc2nc(-c3ccc(C#N)cc3)c(-c3ccc4c(c3)CC(=O)N4C)c3nccn23)C1` [Example 6, 4-(8-(1-methyl-2-oxo-2,3-dihydro-1H-indol-5-yl)-5-{[(3R)-1-methylpiperidin-3-yl]methoxy}imidazo[1,2-c]pyrimidin-7-yl)benzonitrile], the IC50 lay in the range of 50 to 500 nM. Compound `CN1CCC[C@@H](COc2nc(-c3ccc(C#N)cc3)c(-c3ccc4c(c3)oc(=O)n4C)c3nccn23)C1` [Example 7, 4-(8-(3-methyl-2-oxo-2,3-dihydro-1,3-benzoxazol-6-yl)-5-{[(3R)-1-methylpiperidin-3-yl]methoxy}imidazo[1,2-c]pyrimidin-7-yl)benzonitrile] gave a 50% inhibitory concentration (IC50) of no more than 50 nM. The same measure for `CN1CCC[C@@H](COc2nc(-c3ccc(C#N)cc3)c(-c3ccc4c(cnn4C)c3)c3nccn23)C1` [Example 8, 4-(8-(1-methyl-1H-indazol-5-yl)-5-{[(3R)-1-methylpiperidin-3-yl]methoxy}imidazo[1,2-c]pyrimidin-7-yl)benzonitrile]: no more than 50 nM; for `CN1CCN(Cc2ccc(-c3c(-c4ccc(C#N)cc4)nc(OC[C@@H]4CCCN(C)C4)n4ccnc34)cc2)CC1` [Example 9, 4-(8-{4-[(4-methylpiperazin-1-yl)methyl]phenyl}-5-{[(3R)-1-methylpiperidin-3-yl]methoxy}imidazo[1,2-c]pyrimidin-7-yl)benzonitrile]: no more than 50 nM; for `CN1CCN(C(=O)Cc2ccc(-c3c(-c4ccc(C#N)cc4)nc(OC[C@@H]4CCCN(C)C4)n4ccnc34)cc2)CC1` [Example 10, 4-(8-{4-[2-(4-methylpiperazin-1-yl)-2-oxoethyl]phenyl}-5-{[(3R)-1-methylpiperidin-3-yl]methoxy}imidazo[1,2-c]pyrimidin-7-yl)benzonitrile]: no more than 50 nM. Then `CN1CCC[C@@H](COc2nc(-c3ccc(C#N)cc3)c(-c3ccc(CCN4CCOCC4)cc3)c3nccn23)C1` [Example 11, 4-{5-{[(3R)-1-methylpiperidin-3-yl]methoxy}-8-[4-(2-morpholin-4-ylethyl)phenyl]imidazo[1,2-c]pyrimidin-7-yl}benzonitrile], with 50 to 500 nM; and `CN1CCC[C@@H](COc2nc(-c3ccc(C#N)cc3)c(-c3ccc(CN4CCOCC4)cc3)c3nccn23)C1` [Example 12, 4-{5-{[(3R)-1-methylpiperidin-3-yl]methoxy}-8-[4-(morpholin-4-ylmethyl)phenyl]imidazo[1,2-c]pyrimidin-7-yl}benzonitrile], with 50 to 500 nM.

The compound `CN1CCC[C@@H](COc2nc(-c3ccc(C#N)cc3)c(-c3ccc(CN4CC[C@H](C#N)C4)cc3)c3nccn23)C1` [Example 13, (3S)-1-[4-(7-(4-cyanophenyl)-5-{[(3R)-1-methylpiperidin-3-yl]methoxy}imidazo[1,2-c]pyrimidin-8-yl)benzyl]pyrrolidine-3-carbonitrile] displayed an IC50 of no more than 50 nM. Regarding `CN1CCC[C@@H](COc2nc(-c3ccc(C#N)cc3)c(-c3cnc4c(c3)OCCN4C)c3nccn23)C1` [Example 14, 4-(8-(4-methyl-3,4-dihydro-2H-pyrido[3,2-b][1,4]oxazin-7-yl)-5-{[(3R)-1-methylpiperidin-3-yl]methoxy}imidazo[1,2-c]pyrimidin-7-yl)benzonitrile], the IC50 is no more than 50 nM.

In turn, `CN1CCC[C@@H](COc2nc(-c3ccc(C#N)cc3)c(-c3ccc4c(c3)OCC(=O)N4C)c3nccn23)C1` [Example 15, 4-(8-(4-methyl-3-oxo-3,4-dihydro-2H-1,4-benzoxazin-7-yl)-5-{[(3R)-1-methylpiperidin-3-yl]methoxy}imidazo[1,2-c]pyrimidin-7-yl)benzonitrile] gave an IC50 of 50 to 500 nM.

Compound `CN1CCC[C@@H](COc2nc(-c3ccc(C#N)cc3)c(-c3ccc(N4CCCC4=O)nc3)c3nccn23)C1` [Example 16, 4-{5-{[(3R)-1-methylpiperidin-3-yl]methoxy}-8-[6-(2-oxopyrrolidin-1-yl)pyridin-3-yl]imidazo[1,2-c]pyrimidin-7-yl}benzonitrile] showed an IC50 of 50 to 500 nM. With `CN1CCC[C@@H](COc2nc(-c3ccc(C#N)cc3)c(-c3ccc4c(c3)ncn4C)c3nccn23)C1` [Example 17, 4-(8-(1-methyl-1H-benzimidazol-5-yl)-5-{[(3R)-1-methylpiperidin-3-yl]methoxy}imidazo[1,2-c]pyrimidin-7-yl)benzonitrile], the IC50 was no more than 50 nM. The compound `CN1CCC[C@@H](COc2nc(-c3ccc(C#N)cc3)c(-c3ccc4cnn(C)c4c3)c3nccn23)C1` [Example 18, 4-(8-(1-methyl-1H-indazol-6-yl)-5-{[(3R)-1-methylpiperidin-3-yl]methoxy}imidazo[1,2-c]pyrimidin-7-yl)benzonitrile] registered an IC50 of 50 to 500 nM. For `CN1CCC[C@@H](COc2nc(-c3ccc(C#N)cc3)c(-c3cnc4c(ccn4C)c3)c3nccn23)C1` [Example 19, 4-[5-{[(3R)-1-methylpiperidin-3-yl]methoxy}-8-(1-methyl-1H-pyrrolo[2,3-b]pyridin-5-yl)imidazo[1,2-c]pyrimidin-7-yl]benzonitrile], the IC50 was no more than 50 nM. Then `CN1CCC[C@@H](COc2nc(-c3ccc(C#N)cc3)c(-c3ccc4c(c3)CC(C(=O)N(C)C)O4)c3nccn23)C1` (stereo partly drawn) [Example 20, 5-(7-(4-cyanophenyl)-5-{[(3R)-1-methylpiperidin-3-yl]methoxy}imidazo[1,2-c]pyrimidin-8-yl)-N,N-dimethyl-2,3-dihydro-1-benzofuran-2-carboxamide], with no more than 50 nM.

`CN1CC[C@@H](COc2nc(-c3ccc(C#N)cc3)c(-c3ccc(N(C)C)nc3)c3nccn23)C1` [Example 21, 4-(8-[6-(dimethylamino)pyridin-3-yl]-5-{[(3R)-1-methylpyrrolidin-3-yl]methoxy}imidazo[1,2-c]pyrimidin-7-yl)benzonitrile] displayed an IC50 of 50 to 500 nM. For `CN1CC[C@@H](COc2nc(-c3ccc(C#N)cc3)c(-c3ccc(N4CCCC4)nc3)c3nccn23)C1` [Example 22, 4-[5-{[(3R)-1-methylpyrrolidin-3-yl]methoxy}-8-(6-pyrrolidin-1-ylpyridin-3-yl)imidazo[1,2-c]pyrimidin-7-yl]benzonitrile], the IC50 was 50 to 500 nM. The same measure for `CN1CC[C@@H](COc2nc(-c3ccc(C#N)cc3)c(-c3ccc4c(c3)CC(=O)N4C)c3nccn23)C1` [Example 23, 4-(8-(1-methyl-2-oxo-2,3-dihydro-1H-indol-5-yl)-5-{[(3R)-1-methylpyrrolidin-3-yl]methoxy}imidazo[1,2-c]pyrimidin-7-yl)benzonitrile]: 50 to 500 nM; for `CN1CC[C@@H](COc2nc(-c3ccc(C#N)cc3)c(-c3cnc4c(c3)OCCN4C)c3nccn23)C1` [Example 24, 4-(8-(4-methyl-3,4-dihydro-2H-pyrido[3,2-b][1,4]oxazin-7-yl)-5-{[(3R)-1-methylpyrrolidin-3-yl]methoxy}imidazo[1,2-c]pyrimidin-7-yl)benzonitrile]: no more than 50 nM; for `CN1CC[C@@H](COc2nc(-c3ccc(C#N)cc3)c(-c3ccc4c(c3)ncn4C)c3nccn23)C1` [Example 25, 4-(8-(1-methyl-1H-benzimidazol-5-yl)-5-{[(3R)-1-methylpyrrolidin-3-yl]methoxy}imidazo[1,2-c]pyrimidin-7-yl)benzonitrile]: 50 to 500 nM. Then `CN1CC[C@@H](COc2nc(-c3ccc(C#N)cc3)c(-c3ccc4c(c3)oc(=O)n4C)c3nccn23)C1` [Example 26, 4-(8-(3-methyl-2-oxo-2,3-dihydro-1,3-benzoxazol-6-yl)-5-{[(3R)-1-methylpyrrolidin-3-yl]methoxy}imidazo[1,2-c]pyrimidin-7-yl)benzonitrile], with 50 to 500 nM; and `CN1CC[C@@H](COc2nc(-c3ccc(C#N)cc3)c(-c3ccc4c(cnn4C)c3)c3nccn23)C1` [Example 27, 4-(8-(1-methyl-1H-indazol-5-yl)-5-{[(3R)-1-methylpyrrolidin-3-yl]methoxy}imidazo[1,2-c]pyrimidin-7-yl)benzonitrile], with no more than 50 nM.
